# Measured values published in PubChem BioAssay AID2060610 (Molecular Pharmacology Branch, DTP, NCI, 2025).
# System: 616215-338-R-J1-PDC complex spheroids, viability % test/control
# Assay: Anticancer human tumor 616215-338-R-J1-PDC patient-derived colon adenocarcinoma cell line growth inhibition [CLK]
# Conditions: for IC50: curve of first compound; for viability, T/C: stronger effect = lower value
# In short: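 Multi-cell-type spheroids combined patient-derived tumor cells with HUVEC endothelial cells and human mesenchymal stem cells. Paired agents were dosed in half-log steps down from about clinical Cmax, or from 10 microM where Cmax was unknown.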
# 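Note: spheroids exposed to agents for 7 days.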
# 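Throughout, for viability, T/C: 100% = DMSO vehicle wells.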
compound,measurement,setting,value
COc1c(OCCCN2CCOCC2)ccc2c3n(c(=NC(=O)c4cnc(N)nc4)nc12)CCN3 + CNC(=O)c1ccc(Nc2nc(OC3CCCC3)c3c(-c4ccc5nc(C)oc5c4)c[nH]c3n2)c(OC)c1,IC50,second compound 0.0316 µM,208 nM
same,IC50,second compound 0.1 µM,45.9 nM
same,IC50,second compound 0.316 µM,< 3.16 nM
same,IC50,second compound 1 µM,< 3.16 nM
same,IC50,second compound 3.16 µM,< 3.16 nM
same,IC50,second compound 10 µM,< 3.16 nM
same,"viability, T/C","second compound 0.0316 µM, first compound 0.00316 µM",92.4%
same,"viability, T/C","second compound 0.0316 µM, first compound 0.01 µM",94.7%
same,"viability, T/C","second compound 0.0316 µM, first compound 0.0316 µM",115%
same,"viability, T/C","second compound 0.0316 µM, first compound 0.1 µM",69.1%
same,"viability, T/C","second compound 0.0316 µM, first compound 0.316 µM",45.7%
same,"viability, T/C","second compound 0.0316 µM, first compound 1 µM",32.3%
same,"viability, T/C","second compound 0.1 µM, first compound 0.00316 µM",62.4%
same,"viability, T/C","second compound 0.1 µM, first compound 0.01 µM",61.5%
same,"viability, T/C","second compound 0.1 µM, first compound 0.0316 µM",57.7%
same,"viability, T/C","second compound 0.1 µM, first compound 0.1 µM",34%
same,"viability, T/C","second compound 0.1 µM, first compound 0.316 µM",26.6%
same,"viability, T/C","second compound 0.1 µM, first compound 1 µM",26.1%
same,"viability, T/C","second compound 0.316 µM, first compound 0.00316 µM",41.4%
same,"viability, T/C","second compound 0.316 µM, first compound 0.01 µM",39.3%
same,"viability, T/C","second compound 0.316 µM, first compound 0.0316 µM",26.5%
same,"viability, T/C","second compound 0.316 µM, first compound 0.1 µM",20.6%
same,"viability, T/C","second compound 0.316 µM, first compound 0.316 µM",14.5%
same,"viability, T/C","second compound 0.316 µM, first compound 1 µM",12.5%
same,"viability, T/C","second compound 1 µM, first compound 0.00316 µM",32.9%
same,"viability, T/C","second compound 1 µM, first compound 0.01 µM",30.1%
same,"viability, T/C","second compound 1 µM, first compound 0.0316 µM",21.2%
same,"viability, T/C","second compound 1 µM, first compound 0.1 µM",13.1%
same,"viability, T/C","second compound 1 µM, first compound 0.316 µM",9.29%
same,"viability, T/C","second compound 1 µM, first compound 1 µM",9.49%
same,"viability, T/C","second compound 3.16 µM, first compound 0.00316 µM",35.6%
same,"viability, T/C","second compound 3.16 µM, first compound 0.01 µM",31.1%
same,"viability, T/C","second compound 3.16 µM, first compound 0.0316 µM",21.4%
same,"viability, T/C","second compound 3.16 µM, first compound 0.1 µM",12%
same,"viability, T/C","second compound 3.16 µM, first compound 0.316 µM",9.19%
same,"viability, T/C","second compound 3.16 µM, first compound 1 µM",8.84%
same,"viability, T/C","second compound 10 µM, first compound 0.00316 µM",35.3%
same,"viability, T/C","second compound 10 µM, first compound 0.01 µM",29.4%
same,"viability, T/C","second compound 10 µM, first compound 0.0316 µM",19.2%
same,"viability, T/C","second compound 10 µM, first compound 0.1 µM",11.1%
same,"viability, T/C","second compound 10 µM, first compound 0.316 µM",10.4%
same,"viability, T/C","second compound 10 µM, first compound 1 µM",7.75%
